Assays:
human LPL mRNA = experiment: Test for increase in LPL mRNA expression (luciferase assay, HTB-92/p387/p383 cell line); format: cell-based; settings: 120 h, HTB-92/p387/p383 cells, 5 days; for maximal fold induction: Max. Ind. Value=Lt/Lc, maximum luciferase activity over control; for EC50: concentration that increases LPL mRNA expression over the control by 50%
Excerpt: Pharmacological Test 1 Test for Increase in LPL mRNA Expression
A luciferase assay was employed to simply and quickly detect an increase in human LPL mRNA. The principle of the assay is as follows:
Luciferase emits light when reacted with luciferine (substrate). The expression of LPL mRNA is controlled by 5′-UTR and 3′-UTR (promoter regions) of the LPL gene. By introducing the promoter regions of the LPL gene into a commercially available plasmid (for example, that produced by Clonetics Corp.) to produce a plasmid (reporter plasmid) that stably expresses luciferase in human cells, such a plasmid expresses luciferase only under conditions in which LPL mRNA can increase. Therefore, when the substrate is introduced to the expression system and the amount of luciferase expression (luciferase activity) is quantified as the extent of chemiluminescence, the amount of LPL mRNA expression can be estimated.
The test herein was performed as follows: Using a plasmid for the luciferase assay manufactured by Clontech, wherein human LPL 5′-UTR (Enerback, S., et al., Mol. Cell. Biol. 12 (10) (1992): 4622-4633) and 3′-UTR (Wion, K. L., et al., Science 235 (1987): 4796, 1638-1641) had been inserted, human-derived liposarcoma cell line SW872 (ATCC Accession No. HTB-92) was transformed to prepare an HTB-92/p387/p383 cell line, which stably expresses luciferase.
This HTB-92/p387/p383 cell line was introduced into a 225 cm^2 culture flask furnished with a culture medium and cultured at 37° C. in the absence of CO2 until reaching confluence. Leibovitz's L-15 culture medium (containing 10% FBS, 1% GlutaMaxII, 10 μg/ml streptomycin, 1 μg/ml puromycin, 250 μg/ml hygromycin B) was used as the culture medium. After reaching confluence, the cells were collected, plated on 384-well plates to have 20000 cells/well, and cultured with 50 μl/well of the culture medium under the same conditions as above (37° C., absence of CO2). After 3 days of culturing, the culture medium was replaced by 50 μl/well phenol-red-free DMEM (containing 10% FBS, 1% GlutaMax, 10 U/ml penicillin, 10 μg/ml streptomycin, 1 μg/ml puromycin, 250 μg/ml hygromycin, 1 μM dexamethasone, 0.5 μM IBMX; differentiation medium), and the cells were cultured for 5 more days at 37° C. in the presence of CO2 to differentiate.
Furthermore, the culture medium was replaced by a 50 μl/well medium containing a compound of the invention (compound prepared in an Example) as a test substance wherein the compound had been conditioned with DMSO to a specific concentration selected from 10^−4 M to 3×10^−10M. The cells were cultured for 5 days at 37° C. in the presence of CO2.
After 5 days of culturing, a luciferase substrate solution (manufactured by Promega Corporation) was introduced to each well in an amount of 30 μl/well. The cells were left to stand 10 minutes at room temperature, and luciferase activities were measured by a luminometer (a microplate scintilltion counter; The Wallac MicroBeta Trilux, manufactured by Perkin Elmer, Inc.).
Cells that had been cultured and differentiated in a differentiation medium prepared by adding 0.1% DMSO to the above-mentioned DMEM medium (differentiation medium) not containing phenol red were used as a control (i.e., cultured and differentiated for 5 days and then stimulated for 5 days). The luciferase activity of these control cells were measured as above. The EC50 value (the concentration of test substance that can increase the amount of LPL mRNA expression over the control by 50%, unit: M) was calculated based on the straight line obtained by plotting the results of the tests performed using the test substances at varying concentrations. The maximum induction (Max. Ind. values) was calculated according to the following equation: Max. Ind. Value=Lt/Lc wherein Lt represents the maximum luciferase activity occurred in response to test substance stimulation; and Lc represents the value indicating the luciferase activity of the control.

LPL = experiment: Test for LPL activity-increasing effect in normal rats (skeletal muscle LPL activity); format: in vivo; settings: every day for 1 week, SD rats, soleus muscle, 4 h after administration
Method: Test for LPL Activity-Increasing Effect in Normal Rats
6-week-old SD rats (purchased from Charles River Japan) were used as subjects. The rats were divided into groups according to body weight at the age of 5 weeks. The rats in each test group were orally administered with a 5% gum arabic suspension in an amount of 5 ml/kg of body weight, the suspension containing the test compound of the invention in such an amount that the dose of the compound of the invention became 30 mg/kg of body weight in one group and 100 mg/kg of body weight in another group. The rats in a control group were orally administered with a 5% gum arabic suspension (not containing the test compound of the invention) in an amount of 5 ml/kg of body weight. Each sample suspension was orally administered every day at a specific time of day for 1 week starting when the rats reached the age of 6 weeks.
Four hours after the administration of the sample suspension, skeletal muscle tissues of the rats were collected, then freeze-clamped and stored under liquid nitrogen. LPL activity in the skeletal muscle tissues was measured by the following method.
The soleus muscle was homogenized in a chilled solution of 0.05 mol/L NH4OH—NH4Cl buffer (pH 8.5) containing 0.5 U/mL heparin at 1 mL/100 mg of tissue wet weight. After standing on ice for 60 min with vigorous mixing at intervals of 15 min, the homogenate was centrifuged at 3000 rpm and 4° C. for 10 min and the supernatant was separated.
The substrate solution was prepared by mixing 2 μCi of glycerol tri[1-^14C]oleate, 0.133 g of unlabeled triolein, 0.9 mL of 1% Triton X-100, and 0.9 mL of 4% bovine serum albumin. in 0.2 mol/L Tris-HCl buffer (pH 8.6) and 10.2 mL of 0.2 mol/L Tris-HCl buffer (pH 8.6). The mixture was emulsified by sonication on ice for 3 min.
In a glass test tube, 0.1 mL of the tissue extract, 0.05 mL of heat-inactivated rat serum and 0.15 mL of 4% bovine serum albumin in 0.2 mol/L Tris-HCl buffer (pH 7.4) were mixed. Enzyme reaction was started by adding 0.2 mL of the substrate solution and was carried out for 30 min. at 37° C.
The reaction was stopped by addition of 2 mL of 1.5 mol/L H2SO4/2-propanol (1:40, v/v), and 1 mL of distilled water and 3 mL of hexane were added into the test tube. After vigorously shaking for 10 min. at room temperature, the test tube was centrifuged for 10 min. at 3000 rpm.
The upper layer (3.5 mL) was collected in a new test tube and mixed with 1 mL of 0.1 mol/L KOH.
The test tube was vigorously shaken for 10 min. at room temperature and then centrifuged for 10 min. at 3000 rpm.
After removing the upper layer, 1 mL of the lower layer (water phase) was transferred into a vial for counting, neutralized with 50 μL of 1.3 mol/L HCl and mixed with 4 mL of scintillator. The radioactivity was measured using a liquid scintillation counter.
The LPL activity increase (%) was calculated from the measured values of LPL activity in the control group and test groups according to the following formula: LPL activity increase (%)=(Test group average value)/(Control group average value)×100−100

EC50 (human LPL mRNA) [µM]	melting point [°C]	Structure (SMILES)	maximal fold induction (human LPL mRNA)	Increase of skeletal muscle LPL activity compared to control (%) (LPL; 30 mg/kg oral)	Increase of skeletal muscle LPL activity compared to control (%) (LPL; 100 mg/kg oral)
6.2		COc1cc(-c2cnc3ccccn23)ccc1O[C@H](C)c1ccccc1 [Example 132]	1.7		
5.2	113 to 113.5	COc1cc(-c2cnc3ccccn23)ccc1OC(C)c1ccccc1 (centres unmarked) [Example 135]	1.8		
3		COc1cc(-c2cnc3ccccn23)ccc1OCc1ccc(Cl)cc1 [Example 109]	1.5		
3.3		COc1cc(-c2cnc3ccccn23)ccc1OCc1ccc(Cl)c(Cl)c1 [Example 117]	2.2		
2	115 to 117	COc1cc(-c2cn3ccccc3n2)ccc1OCc1ccccc1F [Example 4]	1.7		
3.6	117 to 118	COc1cc(-c2cn3ccccc3n2)ccc1OCc1cccc(F)c1 [Example 5]	1.6		
	126 to 127	CCCOc1cc(-c2cn3ccccc3n2)ccc1OCc1ccccc1 [Example 61]			
	189 to 191	COc1cc(-c2cn3cccc(OC)c3n2)ccc1OCc1ccccc1 [Example 88]			
2	95 to 97	COc1cc(-c2cn3ccccc3n2)ccc1Oc1ccccc1 [Example 138]	2		
6.4	149 to 150	COc1cc(-c2cn3ccccc3n2)ccc1O[C@@H](C)c1ccccc1 [Example 134]	1.7		
	139 to 140	COc1cc(-c2nc3ccccn3c2Cl)ccc1OCc1ccc(Cl)cc1 [Example 19]			
	108 to 109	COc1cc(-c2nc3ccccc3s2)ccc1OCc1ccccc1 [Example 78, 2-(4-benzyloxy-3-methoxyphenyl)benzothiazole]			
	157 to 158	CCOc1cc(-c2cn3ccccc3n2)ccc1OCc1ccccc1 [Example 60]			

Continued, compound first:

Structure (SMILES)	EC50 (human LPL mRNA) [µM]	melting point [°C]	maximal fold induction (human LPL mRNA)	Increase of skeletal muscle LPL activity compared to control (%) (LPL; 30 mg/kg oral)	Increase of skeletal muscle LPL activity compared to control (%) (LPL; 100 mg/kg oral)
CCO[PH](=O)OCc1ccc(C(=O)Nc2ccc(Br)cc2C#N)cc1 (centres unmarked) [ethyl 4-[(4-bromo-2-cyanophenyl)carbamoyl]benzyl phosphonate, reference compound]			~1.2		
COc1cc(-c2cn3ccccc3n2)ccc1OCc1ccc(C#N)cc1 [Example 30]	6.7	175 to 177	1.9	22	31
COc1cc(-c2cn3cccc(OCc4ccccc4)c3n2)ccc1OCc1ccc(Br)cc1 [Example 85]		168 to 169		9	36
c1ccc(-c2cc3cc(-c4cn5ccccc5n4)ccc3o2)cc1 [Example 103]	7.4	239.5 to 241	1.9		
COc1cc(-c2cn3ccsc3n2)ccc1OCc1ccccc1 [Example 24]		130 to 132			
COc1cc(-c2cn3ccccc3n2)ccc1OCc1cc(F)ccc1F [Example 94]		115 to 117			
c1ccc(COc2ccc(-c3cn4ccccc4n3)cc2)cc1 [Example 13]		171 to 173			
COc1cc(-c2cn3cc(C(F)(F)F)ccc3n2)ccc1OCc1ccccc1 [Example 17]		172 to 173			
COc1cc(-c2cn3cc(Cl)cc(Cl)c3n2)ccc1OCc1ccc(Cl)cc1 [Example 80]		162 to 163			
COc1cc(-c2cn3cc(Br)c(C)c(C)c3n2)ccc1OCc1ccc(Cl)cc1 [Example 70]		166 to 167			
COc1cc(-c2cn3ccccc3n2)ccc1OCc1ccc(F)cc1F [Example 93]		137 to 138			
COc1cc(-c2cccc3nccn23)ccc1O [Example 137]		177 to 178			
COc1cc(-c2cn3ccccc3n2)ccc1OCc1ccc(Cl)c(Cl)c1 [Example 22]		138 to 139			
COc1cc(-c2cn3cccc(C)c3n2)ccc1OCc1ccc(Cl)cc1 [Example 73]		132 to 133			
COc1cc(-c2cn3ccccc3n2)ccc1Oc1ccc(Cl)cc1 [Example 114]	7.2	148 to 149	1.5		
COC(=O)c1ccc(COc2ccc(-c3cn4ccccc4n3)cc2OC)cc1 [Example 50]		125 to 126			
COc1cc(-c2cn3cccc(OC)c3n2)ccc1OCc1ccc(Cl)cc1 [Example 89]		132 to 134			
